Test results reported in patent US10800792B2, “Inhibitors of Bruton's tyrosine kinase and method of their use” (JANSSEN PHARMACEUTICA NV, priority 2015, dated 2020).

Molecular target: unphosphorylated-BTK kinase domain (UP-BTK), GST-tagged human BTK (389-659aa) (Homo sapiens (Human), UniProt Q06187)
Experiment: BTK kinase Lanthascreen binding assay
Conditions: pIC50 = negative log of the IC50 in molar; 60 minutes incubation, 50 nM Tracer 236
How it was run: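 Measures how well compounds compete with a fluorescence-labelled tracer for binding to BTK in its unphosphorylated state. IC50 values were fitted and expressed as pIC50 (negative logarithm of the molar IC50).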

Chain of unphosphorylated-BTK kinase domain (UP-BTK), GST-tagged human BTK (389-659aa) (Q06187 389-659): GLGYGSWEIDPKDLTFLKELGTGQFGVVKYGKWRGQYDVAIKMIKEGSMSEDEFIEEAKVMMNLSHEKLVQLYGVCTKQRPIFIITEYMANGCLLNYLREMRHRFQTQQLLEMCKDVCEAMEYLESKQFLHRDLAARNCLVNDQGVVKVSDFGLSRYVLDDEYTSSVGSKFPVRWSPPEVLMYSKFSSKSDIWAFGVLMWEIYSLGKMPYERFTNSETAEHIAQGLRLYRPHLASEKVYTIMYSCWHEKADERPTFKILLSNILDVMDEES

BTK_I_binding pIC50 | Compound
7.1 | Cc1cc(Oc2ccccc2)ccc1N1C(=O)Nc2c(C(=O)N[C@@H]3CCCN(C(=O)[C@H]4CCOC4)C3)sc3nccc1c23 [Example 207, 5-(2-Methyl-4-phenoxyphenyl)-4-oxo-N—((R)-1-((S)-tetrahydrofuran-3-carbonyl)piperidin-3-yl)-4,5-dihydro-3H-1-thia-3,5,8-triazaacenaphthylene-2-carboxamide]
6.8 | CO[C@@H]1CN(C)C[C@@H]1NC(=O)c1sc2nccc3c2c1NC(=O)N3c1ccc(Oc2ccccc2)cc1C [Example 208, N-((3S,4R)-4-Methoxy-1-methylpyrrolidin-3-yl)-5-(2-methyl-4-phenoxyphenyl)-4-oxo-4,5-dihydro-3H-1-thia-3,5,8-triazaacenaphthylene-2-carboxamide]
7.1 | C=CC(=O)N1CC[C@@H](NC(=O)c2sc3nccc4c3c2NC(=O)N4c2c(Cl)ccc3c2OCO3)C1 [Example 209, (R)—N-(1-Acryloylpyrrolidin-3-yl)-5-(5-chlorobenzo[d][1,3]dioxol-4-yl)-4-oxo-4,5-dihydro-3H-1-thia-3,5,8-triazaacenaphthylene-2-carboxamide]
6.7 | Cc1cccc(Oc2ccc(N3C(=O)Nc4c(C(=O)N[C@@H]5CCCN(C)C5)sc5nccc3c45)c(C)c2)c1 [Example 210, (R)-5-(2-Methyl-4-(m-tolyloxy)phenyl)-N-(1-methylpiperidin-3-yl)-4-oxo-4,5-dihydro-3H-1-thia-3,5,8-triazaacenaphthylene-2-carboxamide]
6.7 | CO[C@@H]1CNC[C@@H]1NC(=O)c1sc2nccc3c2c1NC(=O)N3c1ccc(Oc2ccccc2)cc1C [Example 211, N-((3S,4R)-4-Methoxypyrrolidin-3-yl)-5-(2-methyl-4-phenoxyphenyl)-4-oxo-4,5-dihydro-3H-1-thia-3,5,8-triazaacenaphthylene-2-carboxamide]
7.0 | CCNC(C)(C)/C=C(\C#N)C(=O)N1CCC[C@@H](NC(=O)c2sc3nccc4c3c2NC(=O)N4c2ccc(Oc3ccccc3)cc2C)C1 [Example 212, (R,E)-N-(1-(2-Cyano-4-(ethylamino)-4-methylpent-2-enoyl)piperidin-3-yl)-5-(2-methyl-4-phenoxyphenyl)-4-oxo-4,5-dihydro-3H-1-thia-3,5,8-triazaacenaphthylene-2-carboxamide]
6.5 | Cc1cc(Oc2ccccc2)ccc1N1C(=O)Nc2c(C(=O)N[C@@H]3CCCN(C4CC4)C3)sc3nccc1c23 [Example 213, (R)—N-(1-Cyclopropylpiperidin-3-yl)-5-(2-methyl-4-phenoxyphenyl)-4-oxo-4,5-dihydro-3H-1-thia-3,5,8-triazaacenaphthylene-2-carboxamide]
6.8 | Cc1cc(Oc2cccc(F)c2)ccc1N1C(=O)Nc2c(C(=O)N[C@@H]3CCCN(C)C3)sc3nccc1c23 [Example 214, (R)-5-(4-(3-Fluorophenoxy)-2-methylphenyl)-N-(1-methylpiperidin-3-yl)-4-oxo-4,5-dihydro-3H-1-thia-3,5,8-triazaacenaphthylene-2-carboxamide]
7.2 | COCCC(=O)N1CCC[C@@H](NC(=O)c2sc3nccc4c3c2NC(=O)N4c2ccc(Oc3ccccc3)cc2F)C1 [Example 215, (R)-5-(2-Fluoro-4-phenoxyphenyl)-N-(1-(3-methoxypropanoyl)piperidin-3-yl)-4-oxo-4,5-dihydro-3H-1-thia-3,5,8-triazaacenaphthylene-2-carboxamide]
6.7 | C=CC(=O)N1CCC[C@@H](NC(=O)c2sc3nccc4c3c2NC(=O)N4c2ccccc2C)C1 [Example 216, (R)—N-(1-Acryloylpiperidin-3-yl)-4-oxo-5-(o-tolyl)-4,5-dihydro-3H-1-thia-3,5,8-triazaacenaphthylene-2-carboxamide]

The next lines start with the compound.

Compound | BTK_I_binding pIC50
Cc1cc(Oc2ccccc2)ccc1N1C(=O)Nc2c(C(=O)N[C@@H]3CCCN(C(=O)[C@@H]4CCNC4)C3)sc3nccc1c23 [Example 191, 5-(2-Methyl-4-phenoxyphenyl)-4-oxo-N—((R)-1-((R)-pyrrolidine-3-carbonyl)piperidin-3-yl)-4,5-dihydro-3H-1-thia-3,5,8-triazaacenaphthylene-2-carboxamide] | 7.1
Cc1cc(Oc2ccccc2)ccc1N1C(=O)Nc2c(C(=O)NC3(CO)CCOCC3)sc3nccc1c23 [Example 192, N-(4-(Hydroxymethyl)tetrahydro-2H-pyran-4-yl)-5-(2-methyl-4-phenoxyphenyl)-4-oxo-4,5-dihydro-3H-1-thia-3,5,8-triazaacenaphthylene-2-carboxamide] | 6.8
CCOc1ccc(N2C(=O)Nc3c(C(=O)N[C@@H]4CCCN(C(=O)/C(C#N)=C/C5CC5)C4)sc4nccc2c34)c(C)c1 [Example 193, (R,E)-N-(1-(2-Cyano-3-cyclopropylacryloyl)piperidin-3-yl)-5-(4-ethoxy-2-methylphenyl)-4-oxo-4,5-dihydro-3H-1-thia-3,5,8-triazaacenaphthylene-2-carboxamide] | 7.3
C=CC(=O)N1CCC[C@@H](NC(=O)c2sc3nccc4c3c2NC(=O)N4c2ccccc2F)C1 [Example 194, (R)—N-(1-Acryloylpiperidin-3-yl)-5-(2-fluorophenyl)-4-oxo-4,5-dihydro-3H-1-thia-3,5,8-triazaacenaphthylene-2-carboxamide] | 6.9
Cc1cc(Oc2ccccc2)ccc1N1C(=O)Nc2c(C(=O)N[C@@H]3CCCN(C(=O)/C(C#N)=C\C(C)(C)N)C3)sc3nccc1c23 [Example 195, (R,Z)—N-(1-(4-Amino-2-cyano-4-methylpent-2-enoyl)piperidin-3-yl)-5-(2-methyl-4-phenoxyphenyl)-4-oxo-4,5-dihydro-3H-1-thia-3,5,8-triazaacenaphthylene-2-carboxamide] | 7.4
Cc1cc(Oc2ccccc2)ccc1N1C(=O)Nc2c(C(=O)N[C@@H]3CCCN(C(=O)/C(C#N)=C/C4(N)CC4)C3)sc3nccc1c23 [Example 196, (R,E)-N-(1-(3-(1-Aminocyclopropyl)-2-cyanoacryloyl)piperidin-3-yl)-5-(2-methyl-4-phenoxyphenyl)-4-oxo-4,5-dihydro-3H-1-thia-3,5,8-triazaacenaphthylene-2-carboxamide] | 6.8
Cc1cc(Oc2ccccc2)ccc1N1C(=O)Nc2c(C(=O)N[C@H]3CNC[C@@H](O)C3)sc3nccc1c23 [Example 197, N-((3R,5S)-5-Hydroxypiperidin-3-yl)-5-(2-methyl-4-phenoxyphenyl)-4-oxo-4,5-dihydro-3H-1-thia-3,5,8-triazaacenaphthylene-2-carboxamide] | 6.8
Cc1cc(Oc2ccccc2)ccc1N1C(=O)Nc2c(C(=O)N[C@@H]3CCCN(C(=O)[C@@H]4CCOC4)C3)sc3nccc1c23 [Example 198, 5-(2-Methyl-4-phenoxyphenyl)-4-oxo-N—((R)-1-((R)-tetrahydrofuran-3-carbonyl)piperidin-3-yl)-4,5-dihydro-3H-1-thia-3,5,8-triazaacenaphthylene-2-carboxamide] | 7.0
Cc1cc(Oc2ccccc2)ccc1N1C(=O)Nc2c(C(=O)N[C@@H]3CCCN(C(=O)/C=C/C4CC4)C3)sc3nccc1c23 [Example 199, (R,E)-N-(1-(3-Cyclopropylacryloyl)piperidin-3-yl)-5-(2-methyl-4-phenoxyphenyl)-4-oxo-4,5-dihydro-3H-1-thia-3,5,8-triazaacenaphthylene-2-carboxamide] | 6.6
Cc1cc(Oc2ccccc2)ccc1N1C(=O)Nc2c(C(=O)N[C@H]3CN(C)C[C@H]3O)sc3nccc1c23 [Example 200, N-((3S,4R)-4-Hydroxy-1-methylpyrrolidin-3-yl)-5-(2-methyl-4-phenoxyphenyl)-4-oxo-4,5-dihydro-3H-1-thia-3,5,8-triazaacenaphthylene-2-carboxamide] | 6.6
Cc1cc(Oc2ccccc2C2CC2)ccc1N1C(=O)Nc2c(C(=O)N[C@@H]3CCCN(C)C3)sc3nccc1c23 [Example 201, (R)-5-(4-(2-Cyclopropylphenoxy)-2-methylphenyl)-N-(1-methylpiperidin-3-yl)-4-oxo-4,5-dihydro-3H-1-thia-3,5,8-triazaacenaphthylene-2-carboxamide] | 6.6
Cc1cc(Oc2ccccc2)ccc1N1C(=O)Nc2c(C(=O)NC3CNC(=O)C3)sc3nccc1c23 (centres unmarked) [Example 202, 5-(2-Methyl-4-phenoxyphenyl)-4-oxo-N-(5-oxopyrrolidin-3-yl)-4,5-dihydro-3H-1-thia-3,5,8-triazaacenaphthylene-2-carboxamide] | 6.7
Cc1cc(Oc2ccccc2)ccc1N1C(=O)Nc2c(C(=O)NC3CCN(C)C(C)C3)sc3nccc1c23 (centres unmarked) [Example 203, N-(1,2-Dimethylpiperidin-4-yl)-5-(2-methyl-4-phenoxyphenyl)-4-oxo-4,5-dihydro-3H-1-thia-3,5,8-triazaacenaphthylene-2-carboxamide] | 6.5
C=C(C)C(=O)N1CCC[C@@H](NC(=O)c2sc3nccc4c3c2NC(=O)N4c2ccc(Oc3ccccc3)cc2C)C1 [Example 204, (R)—N-(1-Methacryloylpiperidin-3-yl)-5-(2-methyl-4-phenoxyphenyl)-4-oxo-4,5-dihydro-3H-1-thia-3,5,8-triazaacenaphthylene-2-carboxamide] | 6.9
Cc1cc(Oc2ccccc2)ccc1N1C(=O)Nc2c(C(=O)NC3CCCN(C(=O)C4CC4)C3)sc3nccc1c23 (centres unmarked) [Example 205, N-(1-(Cyclopropanecarbonyl)piperidin-3-yl)-5-(2-methyl-4-phenoxyphenyl)-4-oxo-4,5-dihydro-3H-1-thia-3,5,8-triazaacenaphthylene-2-carboxamide] | 6.8
Cc1cc(Oc2ccccc2)ccc1N1C(=O)Nc2c(C(=O)NC3CCCCN(C)C3)sc3nccc1c23 (centres unmarked) [Example 206, 5-(2-Methyl-4-phenoxyphenyl)-N-(1-methylazepan-3-yl)-4-oxo-4,5-dihydro-3H-1-thia-3,5,8-triazaacenaphthylene-2-carboxamide] | 7.1
